Measurements from patent US20240124479A1, “PYRIMIDINE CARBOXAMIDE COMPOUND AND USE THEREOF” (SHANGHAI MEIYUE BIOTECH DEVELOPMENT CO. LTD, priority 2020, published 2024).
Where two headings read alike, the source gives them in different places. One block for each compound: values may come before it.

Tests used:
human plasma Vanin-1 = human plasma Vanin-1 (Homo sapiens (Human), UniProt O95497); experiment: Human plasma Vanin-1 enzyme activity inhibition assay; type: biochemical; conditions: 100-fold diluted human plasma, substrate 25 μM, reading at 30th minute; read-out: hPlasma IC50
Sequence of human plasma Vanin-1 (O95497 22-513): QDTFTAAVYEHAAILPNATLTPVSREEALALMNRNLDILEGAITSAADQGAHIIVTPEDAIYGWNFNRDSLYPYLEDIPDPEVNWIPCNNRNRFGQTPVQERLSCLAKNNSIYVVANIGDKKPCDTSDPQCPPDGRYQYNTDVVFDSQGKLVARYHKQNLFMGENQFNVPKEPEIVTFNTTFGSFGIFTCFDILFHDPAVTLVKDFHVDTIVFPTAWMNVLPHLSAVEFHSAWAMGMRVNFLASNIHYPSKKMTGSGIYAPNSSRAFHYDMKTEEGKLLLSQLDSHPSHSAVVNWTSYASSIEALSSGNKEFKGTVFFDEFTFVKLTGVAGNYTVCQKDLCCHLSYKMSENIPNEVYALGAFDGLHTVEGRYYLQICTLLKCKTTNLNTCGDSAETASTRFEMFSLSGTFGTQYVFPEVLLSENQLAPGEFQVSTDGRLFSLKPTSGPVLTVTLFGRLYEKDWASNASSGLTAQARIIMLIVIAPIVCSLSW

CYP enzymes = experiment: CYP enzyme inhibition, overall statement on tested CYP enzymes; type: in vitro ADME; conditions: 1A2, 2C9, 2C19, 2D6, 3A4; result in words
From the text: (§1) […]. […] […].

CYP 2D6 = CYP 2D6 (Homo sapiens (Human), UniProt P10635); experiment: CYP enzyme inhibitory activity IC50 assay (cocktail method), 2D6; type: in vitro ADME; conditions: microsomes 0.1 mg/mL, probe Dextromethorphan
Sequence of CYP 2D6 (P10635 whole entry): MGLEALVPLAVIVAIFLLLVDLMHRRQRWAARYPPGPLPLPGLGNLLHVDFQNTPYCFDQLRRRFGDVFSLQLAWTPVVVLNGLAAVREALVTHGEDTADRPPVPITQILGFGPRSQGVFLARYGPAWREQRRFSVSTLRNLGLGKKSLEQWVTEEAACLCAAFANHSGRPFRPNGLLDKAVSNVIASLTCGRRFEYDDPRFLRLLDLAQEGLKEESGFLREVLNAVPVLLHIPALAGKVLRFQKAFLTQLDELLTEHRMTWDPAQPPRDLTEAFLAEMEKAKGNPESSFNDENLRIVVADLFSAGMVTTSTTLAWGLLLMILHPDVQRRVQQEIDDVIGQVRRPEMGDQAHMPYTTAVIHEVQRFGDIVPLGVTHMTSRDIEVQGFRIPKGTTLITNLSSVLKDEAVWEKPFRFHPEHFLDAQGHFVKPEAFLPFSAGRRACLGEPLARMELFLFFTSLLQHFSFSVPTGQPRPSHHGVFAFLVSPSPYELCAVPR
From the text: as §1

[1] = In vivo pharmacokinetic evaluation in mice; design: clearance: unit not given here; conditions: for AUC(0-t): read-out: Area under the curve AUC0-7 h; for half-life: read-out: Half-life T1/2 (converted); for Cmax: read-out: Peak concentration Cmax
From the text: The vehicle used in the experiment was: DMSO: Solutol: PBS=5%:25%:70% (v/v/v). Preparation method: The required compound was weighed accurately, added with a certain volume of DMSO in a certain proportion, vortex-mixed until completely dissolved, then added successively with Solutol and PBS according to the above proportion, and mixed well. The vehicles used in the intravenous (iv) administration group and oral (po) administration group were the same vehicles in the experiment. The intravenous dose was 2 mpk and the oral dose was 5 mpk. Experimental blood collection time points: IV group: 0.083, 0.25, 0.5, 1, 2, 4, 7, 24 h. PO group: 200 μL of whole blood was collected from jugular vein at each time point of 0.25, 0.5, 1, 2, 4, 7 and 24 h, anticoagulated with EDTA-K2, and immediately centrifuged at 4000 rpm for 5 minutes at 4° C. The supernatant was taken and the samples were frozen and stored in a refrigerator at −80° C. Processing of plasma samples: the sample was precipitated with ACN/MeOH (1:1, v/v) precipitant containing internal standard, then centrifuged at 14000 rpm for 5 minutes. The supernatant was taken into LC-MS/MS (AB Triple Quard 5500) for analysis to obtain plasma concentrations, and parameters were calculated by the non-compartmental model of Winnolin 8.1 version.

[2] = In vitro liver microsome stability assay, rat; type: in vitro ADME; conditions: liver microsomes, read-out: T1/2 Rat
Protocol: (§2) PBS Buffer was 50 mM K2HPO4 buffer.

CYP3A4 = CYP3A4 (Homo sapiens, UniProt P08684); experiment: in vitro; conditions: microsomes
Sequence of CYP3A4 (P08684 2-503 limits assumed): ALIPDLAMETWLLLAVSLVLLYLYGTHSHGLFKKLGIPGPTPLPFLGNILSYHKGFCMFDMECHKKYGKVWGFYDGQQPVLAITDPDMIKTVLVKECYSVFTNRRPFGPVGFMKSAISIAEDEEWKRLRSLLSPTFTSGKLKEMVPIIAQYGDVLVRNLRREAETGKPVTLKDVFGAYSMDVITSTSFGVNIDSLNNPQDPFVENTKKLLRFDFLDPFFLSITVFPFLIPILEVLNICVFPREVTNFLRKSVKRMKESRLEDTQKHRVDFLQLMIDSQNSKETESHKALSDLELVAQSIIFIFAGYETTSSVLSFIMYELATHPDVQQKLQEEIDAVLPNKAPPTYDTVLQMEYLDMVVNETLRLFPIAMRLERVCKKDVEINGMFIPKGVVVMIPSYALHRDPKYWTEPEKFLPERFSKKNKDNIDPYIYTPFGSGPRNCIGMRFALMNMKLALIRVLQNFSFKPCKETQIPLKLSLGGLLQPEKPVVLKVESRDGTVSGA

[3] = In vitro liver microsome stability assay, human; type: in vitro ADME; conditions: liver microsomes, read-out: T1/2 Human
Protocol: as §2

CYP 2C19 = CYP 2C19 (Homo sapiens (Human), UniProt P33261); experiment: CYP enzyme inhibitory activity IC50 assay (cocktail method), 2C19; type: in vitro ADME; conditions: microsomes 0.1 mg/mL, probe Mephenytoin
Sequence of CYP 2C19 (P33261 whole entry): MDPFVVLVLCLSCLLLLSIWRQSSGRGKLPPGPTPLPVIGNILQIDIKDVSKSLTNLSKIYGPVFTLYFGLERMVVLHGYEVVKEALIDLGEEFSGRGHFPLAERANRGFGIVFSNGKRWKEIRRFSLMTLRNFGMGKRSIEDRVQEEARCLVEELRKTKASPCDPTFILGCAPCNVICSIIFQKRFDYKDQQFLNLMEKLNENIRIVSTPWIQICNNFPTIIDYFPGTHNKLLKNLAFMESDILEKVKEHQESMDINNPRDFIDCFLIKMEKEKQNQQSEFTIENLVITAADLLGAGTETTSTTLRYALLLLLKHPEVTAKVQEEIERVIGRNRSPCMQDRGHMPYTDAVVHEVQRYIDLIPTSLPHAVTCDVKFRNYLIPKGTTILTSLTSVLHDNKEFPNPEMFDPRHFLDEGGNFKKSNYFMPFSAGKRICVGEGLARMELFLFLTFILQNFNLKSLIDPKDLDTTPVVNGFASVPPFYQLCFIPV
From the text: as §1

CYP 2C9 = CYP 2C9 (Homo sapiens (Human), UniProt P11712); experiment: CYP enzyme inhibitory activity IC50 assay (cocktail method), 2C9; type: in vitro ADME; conditions: microsomes 0.1 mg/mL, probe Diclofenac
Sequence of CYP 2C9 (P11712 whole entry): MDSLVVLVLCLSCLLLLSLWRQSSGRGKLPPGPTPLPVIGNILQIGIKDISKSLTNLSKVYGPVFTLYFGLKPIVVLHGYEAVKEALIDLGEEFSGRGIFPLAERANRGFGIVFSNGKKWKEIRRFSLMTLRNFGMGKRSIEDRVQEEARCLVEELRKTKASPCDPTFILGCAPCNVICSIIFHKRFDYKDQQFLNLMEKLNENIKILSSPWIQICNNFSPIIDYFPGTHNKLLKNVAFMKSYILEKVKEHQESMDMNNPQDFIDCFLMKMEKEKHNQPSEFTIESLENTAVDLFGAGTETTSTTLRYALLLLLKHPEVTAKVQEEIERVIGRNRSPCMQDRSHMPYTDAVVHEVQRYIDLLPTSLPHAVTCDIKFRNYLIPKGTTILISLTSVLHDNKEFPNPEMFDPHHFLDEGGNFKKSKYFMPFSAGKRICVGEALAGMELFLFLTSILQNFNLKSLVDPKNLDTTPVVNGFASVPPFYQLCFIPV
From the text: as §1

[4] = In vitro liver microsome stability, overall statement; type: in vitro ADME; conditions: human, mouse, rat liver microsomes; result in words
Protocol: as §2

CYP 1A2 = CYP 1A2 (Homo sapiens (Human), UniProt P05177); experiment: CYP enzyme inhibitory activity IC50 assay (cocktail method), 1A2; type: in vitro ADME; conditions: microsomes 0.1 mg/mL, probe Phenacetin
Sequence of CYP 1A2 (P05177 whole entry): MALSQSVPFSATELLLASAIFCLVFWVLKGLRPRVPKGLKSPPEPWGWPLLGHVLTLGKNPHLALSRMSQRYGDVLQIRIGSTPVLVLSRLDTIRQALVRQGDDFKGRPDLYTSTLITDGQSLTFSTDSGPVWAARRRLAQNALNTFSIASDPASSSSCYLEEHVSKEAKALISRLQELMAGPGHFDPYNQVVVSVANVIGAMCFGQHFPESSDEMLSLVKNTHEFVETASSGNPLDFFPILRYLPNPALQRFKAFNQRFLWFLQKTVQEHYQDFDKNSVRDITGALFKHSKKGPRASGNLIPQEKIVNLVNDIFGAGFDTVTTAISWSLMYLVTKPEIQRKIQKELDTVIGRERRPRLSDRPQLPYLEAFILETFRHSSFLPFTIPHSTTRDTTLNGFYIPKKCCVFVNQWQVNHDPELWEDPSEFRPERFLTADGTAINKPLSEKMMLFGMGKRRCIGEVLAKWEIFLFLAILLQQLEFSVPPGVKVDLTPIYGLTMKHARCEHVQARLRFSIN
From the text: as §1

[5] = In vitro liver microsome stability assay, mouse; type: in vitro ADME; conditions: liver microsomes, read-out: T1/2 Mouse
Protocol: as §2

[6] = mouse, plasma, 2 mg/kg, intravenous injection, 2 mpk
[7] = mouse, plasma, po, 5 mg/kg, intragastric administration, 5 mpk

- IC50 (human plasma Vanin-1): 0.0016 µM
SMILES: CC(Nc1ncc(C(=O)N2CCC3(CCOCC3)C2)cn1)c1ccccc1 (stereo not shown) [Compound 6]

- IC50 (human plasma Vanin-1): 0.0079 µM
SMILES: O=C(c1cnc(NCc2ccc(F)cc2F)nc1)N1CCC2(CCOCC2)C1 [Compound 12]

SMILES: CC(=O)N(C)[C@H]1CCN(C(=O)c2cnc(N[C@H](C)c3ccc(C(F)(F)F)cc3F)nc2)C1 [Compound 41-P2]
- inhibitory effect on the tested CYP enzymes (CYP enzymes): basically no inhibitory effect
- IC50 (CYP 2D6): > 50 µM
- Area under the curve AUC0-7 h ([1]; intragastric administration, 5 mpk): 10656.5 ng·h/mL
- AUC(0-t) [1, 6]: 4960 ng·h/mL
- clearance ([1]; mouse, plasma, 2 mg/kg, intravenous injection, 2 mpk, read-out: Clearance rate CL (converted)): 0.112
- Vd ([1]; mouse, plasma, 2 mg/kg, intravenous injection, 2 mpk, read-out: Distributed solvent Vd): 1.26 L/kg
- half-life [1, 6]: 2.8 h
- Cmax [1, 6]: 2140 ng/mL
- bioavailability ([1]; mouse, plasma, oral, intragastric administration 5 mpk vs intravenous 2 mpk, read-out: Bioavailability F %): 86%
- AUC(0-t) [1, 7]: 10700 ng·h/mL
- half-life [1, 7]: 5.6 h
- Cmax [1, 7]: 1540 ng/mL
- half-life at 1 μM [2]: 3.31 h
- IC50 at 10 min (CYP3A4): > 50 µM
- half-life at 1 μM [3]: > 4.66 h
- IC50 (CYP 2C19): > 50 µM
- IC50 (CYP 2C9): 45.6 µM
- liver microsome stability [4]: remarkable stability
- IC50 (CYP 1A2): > 50 µM
- half-life at 1 μM [5]: 1.65 h
